These results are taken from US20170209448A1, “TREATMENT REGIMENS USING MULTIPLE PHARMACEUTICAL AGENTS” (INTELLIKINE LLC, priority 2011, published 2017).

Where two headings read alike, the source gives them in different places.

One assay relates to PC3. The assay is described as follows: PC3 tumor cell line proliferation assay. Type of assay: cell-based. Particulars: Homo sapiens, PC-3.
For the next assay, the target named is T1, mTORC (Homo sapiens, UniProt P42345).
T1 construct: purchased Invitrogen
T1 sequence (P42345 1360-2549 limits assumed): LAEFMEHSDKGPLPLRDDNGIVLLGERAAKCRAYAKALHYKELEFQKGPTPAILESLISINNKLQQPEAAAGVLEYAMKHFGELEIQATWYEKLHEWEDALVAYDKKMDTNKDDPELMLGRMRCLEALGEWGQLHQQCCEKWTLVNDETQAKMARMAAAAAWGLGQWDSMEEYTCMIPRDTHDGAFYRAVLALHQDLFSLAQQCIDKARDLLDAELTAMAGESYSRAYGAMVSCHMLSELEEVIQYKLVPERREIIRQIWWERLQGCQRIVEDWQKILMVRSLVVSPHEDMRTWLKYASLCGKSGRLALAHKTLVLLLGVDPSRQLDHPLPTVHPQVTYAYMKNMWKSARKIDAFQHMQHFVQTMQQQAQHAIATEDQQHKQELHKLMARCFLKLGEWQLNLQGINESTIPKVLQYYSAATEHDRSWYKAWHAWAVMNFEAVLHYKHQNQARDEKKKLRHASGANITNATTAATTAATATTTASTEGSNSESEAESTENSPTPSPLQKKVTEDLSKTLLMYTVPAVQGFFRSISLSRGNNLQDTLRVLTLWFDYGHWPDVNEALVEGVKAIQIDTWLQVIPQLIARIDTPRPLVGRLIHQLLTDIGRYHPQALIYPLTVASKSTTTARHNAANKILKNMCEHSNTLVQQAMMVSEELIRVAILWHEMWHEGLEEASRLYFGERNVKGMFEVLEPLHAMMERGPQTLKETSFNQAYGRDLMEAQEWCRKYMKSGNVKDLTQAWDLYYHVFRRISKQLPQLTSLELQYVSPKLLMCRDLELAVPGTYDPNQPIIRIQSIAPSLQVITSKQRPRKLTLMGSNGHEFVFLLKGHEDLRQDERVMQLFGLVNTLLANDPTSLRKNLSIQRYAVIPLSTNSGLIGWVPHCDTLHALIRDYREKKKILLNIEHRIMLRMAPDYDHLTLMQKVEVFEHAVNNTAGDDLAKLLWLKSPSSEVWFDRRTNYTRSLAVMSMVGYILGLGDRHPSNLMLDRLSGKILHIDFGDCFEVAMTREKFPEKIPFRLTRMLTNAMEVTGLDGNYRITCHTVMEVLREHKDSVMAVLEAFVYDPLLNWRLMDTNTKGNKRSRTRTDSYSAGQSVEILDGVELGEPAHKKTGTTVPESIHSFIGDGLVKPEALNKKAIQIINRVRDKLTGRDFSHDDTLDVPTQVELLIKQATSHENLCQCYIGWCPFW
The assay is described as follows: mTORC in vitro IC50 (Table 2). It is filed as biochemical.

A further assay relates to A498 xenografts. The assay is described as follows: Tumor hypoxia by pimonidazole staining in A498 xenografts. It is filed as in vivo, Mice. The method, then:
Mice bearing A498 xenografts were treated as shown below in Table 5 for 6 weeks or cycles (each cycle consisting of 7 days). During cycle 6, mice were sacrificed 2 hours after dosing. Pimonidazole hydrochloride, which binds to proteins in hypoxia conditions, was injected intraperitoneally 60 minutes before the tumor was harvested. Tumors were collected either at 2 hr of vehicle (Groups A, C, and D), Compound A (Groups B, C, and E) or sorafenib (Group D) dosing. Tumor tissues were formalin fixed and paraffin embedded. Tissue sections were stained with anti-pimonidazole antibody and visualized with DAB (dark brown).

The mark [1] stands for this setting: Table 2, read-out: PC3 proliferation.

Protocol for PC3: The assay is performed in a 96 well microtiter plate using Alamar Blue reduction. […] A compound disclosed herein is diluted in Tumor Cell Media and added in a 10 ul volume. […] A volume of 10 uL of Alamar Blue reagent is added to each well and plates are incubated for 3 hours at 37 C and 5% CO2.
Protocol for mTORC: The compounds described herein and any other mTor inhibitors known in the art can be tested against recombinant mTOR (Invitrogen) in an assay containing 50 mM HEPES, pH 7.5, 1 mM EGTA, 10 mM MgCl2, 2.5 mM, 0.01% Tween, 10 μM ATP (2.5 μLCi of μ-32P-ATP), and 3 μg/mL BSA. Rat recombinant PHAS-1/4EBP1 (Calbiochem; 2 mg/mL) is used as a substrate. Reactions are terminated by spotting onto nitrocellulose, which is washed with 1M NaCl/1% phosphoric acid (approximately 6 times, 5-10 minutes each). Sheets are dried and the transferred radioactivity quantitated by phosphorimaging.
For instance, one can use Invitrogen's LanthaScreen™ Kinase assay to test the inhibitors of mTOR disclosed herein. This assay is a time resolved FRET platform that measures the phosphorylation of GFP labeled 4EBP1 by mTOR kinase. The kinase reaction is performed in a white 384 well microtitre plate. The total reaction volume is 20 ul per well and the reaction buffer composition is 50 mM HEPES pH7.5, 0.01% Polysorbate 20, 1 mM EGTA, 10 mM MnCl2, and 2 mM DTT. In the first step, each well receives 2 ul of test compound in 20% dimethylsulphoxide resulting in a 2% DMSO final concentration. Next, 8 ul of mTOR diluted in reaction buffer is added per well for a 60 ng/ml final concentration. To start the reaction, 10 ul of an ATP/GFP-4EBP1 mixture (diluted in reaction buffer) is added per well for a final concentration of 10 μM ATP and 0.5 μM GFP-4EBP1. The plate is sealed and incubated for 1 hour at room temperature. […] The plate is sealed, incubated for 1 hour at room temperature, and then read on a plate reader set up for LanthaScreen™ TR-FRET. Data is analyzed and IC50s are generated using GraphPad Prism 5.

For the compound `CC(=O)Nc1nc2cc(-c3nn(C(C)C)c4ncnc(N)c34)ccc2o1` [Compound 2], the IC50 with PC3 (Table 1, read-out: PC3 IC50) was under 1 µM.

Take `CC(C)n1nc(-c2cc3cc(F)ccc3[nH]2)c2c(N)ncnc21` [Compound 3]: the IC50 at mTORC was under 0.5 µM. For the compound `CC(C)n1nc(-c2ccc3nc(N)oc3c2)c2c(N)ncnc21` [Compound 4], the IC50 with PC3 (Table 1, read-out: PC3 IC50) is under 10 µM. As to `Nc1nc2cc(-c3nn(C4CCOCC4)c4ncnc(N)c34)ccc2o1` [Compound 5], the IC50 in the assay on PC3 (Table 1, read-out: PC3 IC50) is under 0.1 µM.

As for `Nc1nc2cc(-c3nn(C4CCC(N5CCOCC5)CC4)c4ncnc(N)c34)ccc2o1` (stereo not drawn) [Compound 6], the IC50 with PC3 (Table 1, read-out: PC3 IC50) was under 1 µM. Still for that read-out and setting: for `CC(=O)N1CCC(n2nc(-c3ccc4oc(N)nc4c3)c3c(N)ncnc32)CC1` [Compound 7] the value was under 10 µM. For the compound `CC(C)n1nc(-c2cc3ccccc3[nH]2)c2c(N)ncnc21` [Compound 7], at mTORC, the IC50 was under 0.1 µM. On to `CC(C)n1cc(-c2ccc3oc(N)nc3c2)c2c(N)ncnc21` [Compound 8], for which the IC50 with PC3 (Table 1, read-out: PC3 IC50) is under 0.1 µM.

`CC(C)n1nc(-c2cc3c(Cl)cccc3[nH]2)c2c(N)ncnc21` [Compound 9] returned an IC50 at mTORC of under 0.05 µM.

`Nc1nc2cc(-c3cn(C4CCOCC4)c4ncnc(N)c34)ccc2o1` [Compound 9]: the IC50 in the assay with PC3 (Table 1, read-out: PC3 IC50) was under 0.1 µM. On to `CC(C)n1nc(-c2ccc3onc(N)c3c2)c2c(N)ncnc21` [Compound 10], for which the IC50 in the assay with PC3 (Table 1, read-out: PC3 IC50) is over 10 µM.

Turning to `COc1cccc2cc(-c3nn(C(C)C)c4ncnc(N)c34)[nH]c12` [Compound 10], the IC50 on mTORC is under 0.025 µM. As to `CC(=O)Nc1noc2cc(-c3nn(C(C)C)c4ncnc(N)c34)ccc12` [Compound 11], in the assay with PC3 (Table 1, read-out: PC3 IC50), the IC50 is over 10 µM. Same read-out and setting: then `CC(C)n1nc(-c2ccc3c(N)noc3c2)c2c(N)ncnc21` [Compound 12], with over 10 µM. With `Nc1ncnc2c1c(-c1cc3cc(O)ccc3[nH]1)nn2C1CCCC1` [Compound 12], the IC50 at mTORC is under 0.01 µM. Still for that read-out and setting: for `CC(C)n1nc(-c2cc3ccc(O)cc3[nH]2)c2c(N)ncnc21` [Compound 21] the value was under 0.05 µM. Take `CC(C)n1nc(-c2cc3ccc(C#N)cc3[nH]2)c2c(N)ncnc21` [Compound 24]: the IC50 in the assay with PC3 (setting [1]) is over 0.5 µM. For `CC(C)n1nc(-c2cc3ccc(C(N)=O)cc3[nH]2)c2c(N)ncnc21` [Compound 25], the results for the IC50 against mTORC and in the assay on PC3 (setting [1]) were under 0.5 µM and over 0.5 µM, respectively.

For the compound `Nc1ncnc2c1c(-c1cc3cc(O)ccc3[nH]1)nn2C1CCCCC1` [Compound 26], the IC50 against mTORC is under 0.01 µM. The same measure, in the same setting: then `Nc1ncnc2c1c(-c1cc3cc(O)ccc3[nH]1)nn2C1CCC1` [Compound 27], with under 0.025 µM; and `CCOC(=O)Cn1nc(-c2cc3cc(O)ccc3[nH]2)c2c(N)ncnc21` [Compound 28], with under 0.5 µM. In turn, `CC(=O)N1CCC(n2nc(-c3cc4cc(O)ccc4[nH]3)c3c(N)ncnc32)CC1` [Compound 30] had an IC50 against mTORC of under 0.025 µM. Compound `Nc1ncnc2c1c(-c1cc3cc(O)ccc3[nH]1)nn2C1CCN(C(=O)C2CC2)CC1` [Compound 31] had an IC50 against mTORC of under 0.025 µM. Same read-out and setting: then `CC(C)n1nc(-c2cc3cc(O)c(Cl)cc3[nH]2)c2c(N)ncnc21` [Compound 32], with under 0.5 µM. Still for that read-out and setting: then `Nc1ncnc2c1c(-c1cc3cc(O)ccc3[nH]1)nn2CCN1CCOCC1` [Compound 33], with under 0.5 µM; and `Nc1ncnc2c1c(-c1cc3cccc(O)c3[nH]1)nn2C1CCCC1` [Compound 36], with under 0.01 µM; and `Nc1ncnc2c1c(-c1cc3cc(O)ccc3[nH]1)nn2Cc1cccnc1` [Compound 38], with under 0.5 µM.

On mTORC, `CC(C)n1nc(-c2cc3c(Cl)ccc(O)c3[nH]2)c2c(N)ncnc21` [Compound 39] registered an IC50 of under 0.01 µM. Same read-out and setting: for `COCCn1nc(-c2cc3cc(O)ccc3[nH]2)c2c(N)ncnc21` [Compound 40] the value was under 0.1 µM; for `Nc1ncnc2c1c(-c1cc3cccc(O)c3[nH]1)nn2C1CCN(C(=O)C2CC2)CC1` [Compound 41], under 0.01 µM. Still for that read-out and setting: for `Cc1nccn1CCn1nc(-c2cc3cc(O)ccc3[nH]2)c2c(N)ncnc21` [Compound 44] the value was under 0.1 µM; for `Nc1ncnc2c1c(-c1cc3c(Cl)cccc3[nH]1)nn2C1CCOCC1` [Compound 48], under 0.05 µM; for `Nc1ncnc2c1c(-c1cc3cc(O)ccc3[nH]1)nn2C1CC(N2CCOCC2)C1` (stereo not drawn) [Compound 49], under 0.01 µM. The same measure, in the same setting: for `CC(C)n1nc(-c2cc3cccc(Cl)c3[nH]2)c2c(N)ncnc21` [Compound 50] the value was under 0.05 µM. On to `Nc1ncnc2c1c(-c1cc3cccc(Cl)c3[nH]1)nn2C1CCOCC1` [Compound 51], for which the IC50 against mTORC is under 0.05 µM. The same measure, in the same setting: then `CN1CCN(C2CC(n3nc(-c4cc5cc(O)ccc5[nH]4)c4c(N)ncnc43)C2)CC1` (stereo not drawn) [Compound 52], with under 0.5 µM; and `Nc1ncnc2c1c(-c1cc3cc(O)ccc3[nH]1)nn2C1CC(=O)C1` [Compound 53], with under 0.1 µM; and `Nc1ncnc2c1c(-c1cc3cc(O)ccc3[nH]1)nn2C1CC(O)C1` (stereo not drawn) [Compound 54], with under 0.025 µM. `CC(C)N1CCC(n2nc(-c3cc4cc(O)ccc4[nH]3)c3c(N)ncnc32)CC1` [Compound 55] returned an IC50 at mTORC of under 0.5 µM. Same read-out and setting: for `Nc1ncnc2c1c(-c1cc3cc(O)ccc3[nH]1)nn2C1CCC(N2CCOCC2)CC1` (stereo not drawn) [Compound 57] the value was under 0.025 µM; for `Nc1ncnc2c1c(-c1cc3ccc(O)cc3[nH]1)nn2C1CCOCC1` [Compound 60], under 0.1 µM. Still for that read-out and setting: then `COc1ccc(Cl)c2cc(-c3nn(C4CCOCC4)c4ncnc(N)c34)[nH]c12` [Compound 61], with under 0.025 µM.

On mTORC, `CC(C)N1CCC(n2nc(-c3cc4cccc(O)c4[nH]3)c3c(N)ncnc32)CC1` [Compound 64] came in with an IC50 of under 0.025 µM. On the same count and under the same terms, for `CC(=O)N1CCC(n2nc(-c3cc4ccc(O)cc4[nH]3)c3c(N)ncnc32)CC1` [Compound 65] the value was under 0.01 µM. In the case of `CC(C)N1CCC(n2nc(-c3cc4c(Cl)ccc(O)c4[nH]3)c3c(N)ncnc32)CC1` [Compound 71], the IC50 on mTORC was under 0.1 µM.

As to `CNC(=O)c1cc(Oc2ccc(NC(=O)Nc3ccc(Cl)c(C(F)(F)F)c3)cc2)ccn1` [Sorafenib, sorafenib], in the assay on A498 xenografts (6 cycles, doses and schedules of Table 5 (Compound A 1 mg/kg PO QD or 3QW; Sorafenib 40 mg/kg IP 4QW; alternating 3QW/4QW), tumor 2 hr after dosing), the “tumor hypoxia (anti-pimonidazole staining)” value was “caused necrosis and cells surrounding the necrosis area appear pimonidazole positive”. Moreover, the “tumor hypoxia (anti-pimonidazole staining), off phase” value in the assay on A498 xenografts (intermittent dosing (Table 5), off phase of the cycle) is recorded as “pimonidazole staining intensity was reduced”.
